The AUC(0-inf) is total exposure, with the tail of the curve extrapolated. Read a low AUC(0-inf) as less exposure. As usually defined, the AUC(0-t) is the area under the concentration-time curve up to a stated or last time point. In general, Cmax refers to the peak of the concentration-time curve. The term half-life denotes the time in which the quantity being followed falls by half. A higher half-life goes with slow decline. Usually bioavailability stands for dose-corrected exposure relative to a reference, in per cent.

The nature of data set [1]: Pharmacokinetic studies in rats: fospropofol and propofol in plasma after IV, PO or ID fospropofol. The following applies: for F of fospropofol (vs 5 mg/kg IV) / F of propofol (vs 5 mg/kg IV fospropofol): rats. Here is the method: Male Sprague-Dawley rats (Charles River, Md., USA) weighing 200-250 g were used, unless otherwise noted. Animals were housed in groups of three-inch suspended polycarbonate cages (18-inches long, 9-inches wide and 9-inches high) under a 12-h light/dark cycle. Food (Harlan/Teklab) and water (filtered and delivered via an automatic watering system) were provided ad libitum. All procedures were conducted in compliance with the laws, regulations and guidelines of the National Institutes of Health (NIH/PHS) and with approval from the local Animal Care and Use committee.
For animal studies, a fospropofol dosing solution was made by dissolving powder in water (for oral and intra-duodenal administration) or saline (for intravenous administration) into an administration volume of 1 or 2 mL/kg, as noted.
Male Sprague-Dawley rats (225-250 g) underwent implantation with indwelling jugular vein catheters for plasma sampling. Animals receiving intravenous (IV) drug administration also underwent femoral vein catheterization and, after full recovery were attached to an electronic infusion pump and administered vehicle or various concentrations of fospropofol in 1 mL total volume by gradual constant rate infusion over 10 min. Intraduodenal (ID) administration was via previously implanted catheters (HILLTOP Labs, PA) in a constant volume of 2 mL/kg body weight, by slow infusion. Oral administration (PO) was performed via a curved bulb-tipped feeding gavage tube attached to a syringe inserted carefully through the oesophagus via the side of the mouth of manually restrained rats using an administration volume of 1 mL/kg. On the day of testing, control blood samples were taken from the jugular vein prior to dosing of test compounds in conscious rats. In these studies, intravenous doses were based on previously reported behavioral and pharmacokinetic studies with fospropofol. The PO and ID doses were established based on preliminary experiments with behavioral observation, using higher doses based on lower expected oral bioavailability.
After fospropofol administration, blood samples (0.5 mL) were taken at 5, 15, 30, 45, 60, 120, 240 and 360 min post dose. An equivalent volume of blood taken from donor rats of the same strain was administered after each blood sample withdrawal, in an effort to maintain blood volume as previously described (Skrajnar, et al., 2009; Moghaddam, et al., 2002; Choi, et al., 2007). Approximately 0.05 mL of 200 mg/mL of sodium orthovanadate (SOV) solution was added to the heparinized blood collection tubes prior to blood collection to prevent ex vivo conversion via alkaline phosphatases (ALP). The blood samples were mixed, cooled and subsequently centrifuged at 3,000 rpm and 4° C. for 10 min within 30 min of collection. Plasma samples were stored at −20° C. until analysis.
For fospropofol analysis, fospropofol-d6 (internal standard prepared in 1.0 M ammonium acetate buffer) was added to the plasma samples (rat or human: 0.05 mL) and subsequently extracted using a solid phase extraction (SPE). The SPE cartridges were conditioned by gravity with methanol and 1.0 M ammonium acetate solution in water. The plasma samples with internal standard were loaded on the cartridges, washed with water and 10% methanol/water and eluted with methanol. The tubes were then evaporated under nitrogen and the residues reconstituted with 50/50 methanol/25 mM ammonium acetate in deionized water. The sample extract was then injected onto a reversed phase HPLC Zorbax Eclipse XDB-C18 column. The separated analytes were detected using tandem mass spectrometry (MS/MS) detection.

A further data set has as its system rats. Description: Sedative studies in rats (0-4 sedation score). Format: in vivo, rat. How it is done: The relative potency of fospropofol given via different administration routes was investigated in rats, using sedation as an end point. Intravenous fospropofol doses of 5-40 mg/kg were chosen based on previous studies (Schywalsky, et al., 2003). Based on expected lower oral bioavailability, doses of 100-400 mg/kg were chosen for the PO and ID studies. Following administration of fospropofol, two experimental observers blinded to the treatment, graded the behavior of the rats (n=2-3 per experimental group) every 5 min for a total of 120 min after administration. […] Scores were averaged across treatment groups per time point.

A short description of data set [2]: Intranasal fospropofol in rats: plasma and brain levels. Format: in vivo, rat.
The conditions of data set [3]: IV lipid emulsion, animals; cited from earlier work.
The conditions of data set [4]: rat, oral propofol; cited from earlier work.
Another data set has as its system Caco-2 cell monolayers. The note with it: cited from earlier work.
Setting [5] is: male, Sprague-Dawley, rat, plasma, 30 mg/kg.
[6] abbreviates: male, Sprague-Dawley, rat, plasma, 100 mg/kg.
Setting [7] is: male, Sprague-Dawley, rat, plasma, iv, 5 mg/kg.
The mark [8] stands for this setting: male, Sprague-Dawley, rat, plasma, po, 20 mg/kg.
Setting [9] is: male, Sprague-Dawley, rat, plasma, po, 100 mg/kg.

With `CC(C)c1cccc(C(C)C)c1OCOP(=O)(O)O` [fospropofol], in data set [1] (setting [5]), the AUC(0-inf) worked out at 50 ng·h/mL, the AUC(0-t) was found to be 44 ng·h/mL, the maximum concentration (Cmax) came out at 170 ng/mL and the half-life was 12.6 min. In data set [1] (setting [6]), this compound had an area under the curve AUC(0-inf) of 650 ng·h/mL, an area under the curve AUC(0-t) of 644 ng·h/mL, a Cmax of 3740 ng/mL and a half-life of 13.8 min. In data set [1] (setting [7]), this compound had an AUC(0-inf) of 3150 ng·h/mL, an AUC(0-t) of 3150 ng·h/mL, a peak concentration (Cmax) of 16300 ng/mL and a Vd of 1.02 L/kg. In data set [1] (setting [7]), this compound showed a clearance of 23 mL/min/kg and a half-life of 29.4 min. In addition, in data set [1] (setting [8]), the total exposure AUC(0-inf) was found to be 60 ng·h/mL, the area under the curve AUC(0-t) came out at 50 ng·h/mL, the highest concentration (Cmax) amounted to 230 ng/mL and the half-life was 11.4 min. In data set [1] (setting [9]), this compound showed an AUC(0-inf) of 2180 ng·h/mL, an AUC(0-t) of 2160 ng·h/mL, a maximum concentration (Cmax) of 9230 ng/mL and a half-life of 29.4 min. Also, the “F of fospropofol (vs 5 mg/kg IV)” value in data set [1] (fospropofol 20 mg/kg PO) amounted to 0.448%. The “F of fospropofol (vs 5 mg/kg IV)” value in data set [1] (fospropofol 30 mg/kg ID) is given as 0.264%. In data set [1] (fospropofol 100 mg/kg ID), the “F of fospropofol (vs 5 mg/kg IV)” value is 1.03%. The “F of fospropofol (vs 5 mg/kg IV)” value in data set [1] (fospropofol 100 mg/kg PO) was 3.46%. Further, in the data set with rats (ID), the “dose inducing full sedation (average score 3.5 or higher)” value (from here on “dose inducing full sedation”) is on record as 50 mg/kg and the “onset of sedation after administration” value is no more than 5 min. For the same compound, the “dose inducing full sedation” value with rats (IV) came out at 40 mg/kg. Also, in the data set with rats (IV 10-40 mg/kg), the “onset of sedative effects” value was no more than 1 min and the “sedative effects abated after infusion” value is listed as no more than 30 min. Besides, in the data set with rats (PO), the “dose inducing full sedation” value was in the range of 300 to 400 mg/kg and the “onset of sedated behavior after dosing” value is 5 to 10 min. Further, in the data set with rats (PO 100-200 mg/kg), the degree of sedation result is given as “mild to moderate sedation” and the duration of sedation was in the range of 1 to 2 h. Further, the “duration of loss of consciousness” value in the data set with rats (PO 300 and 400 mg/kg) was no more than 1 h. Besides, the “fospropofol in plasma after intranasal fospropofol” value in data set [2] is reported as “appreciable plasma concentrations”.

As for `CC(C)c1cccc(C(C)C)c1O` [propofol, 2,6-diisopropylphenol], the bioavailability in data set [1] (male, Sprague-Dawley, rat, plasma) was roughly 100%; in data set [1] (male, Sprague-Dawley, rat, plasma, po), 20 to 70%; in data set [1] (setting [9]), no less than 70%. Also, the “F of propofol (vs 5 mg/kg IV fospropofol)” value was 22.7% in data set [1] (fospropofol 20 mg/kg PO), 47.3% in data set [1] (fospropofol 30 mg/kg ID), 141% in data set [1] (fospropofol 100 mg/kg ID) and 70.5% in data set [1] (fospropofol 100 mg/kg PO). Besides, in data set [3], the “extraction by the liver” value is given as 80%. For the same compound, the bioavailability of propofol in data set [4] is on record as 10%. Also, the permeability result in the data set with Caco-2 cell monolayers is recorded as “highly permeable”.

Values taken from patent US11331271B2, “Buccal, sublingual and intranasal delivery of fospropofol” (The Johns Hopkins University, priority 2016, dated 2022).
